pKi: −log10 of the molar value.
Columns and labels:
human MMP 2 = target: T1, human MMP 2 (Homo sapiens, UniProt P08253); assay: Ki determination with fluorogenic substrate MCA-Mat, human MMP2; format: biochemical; conditions: recombinant MMP 2 h at 0.05 nM, 100 μL, MCA-Mat 15 μM
T1 sequence (P08253 110-660): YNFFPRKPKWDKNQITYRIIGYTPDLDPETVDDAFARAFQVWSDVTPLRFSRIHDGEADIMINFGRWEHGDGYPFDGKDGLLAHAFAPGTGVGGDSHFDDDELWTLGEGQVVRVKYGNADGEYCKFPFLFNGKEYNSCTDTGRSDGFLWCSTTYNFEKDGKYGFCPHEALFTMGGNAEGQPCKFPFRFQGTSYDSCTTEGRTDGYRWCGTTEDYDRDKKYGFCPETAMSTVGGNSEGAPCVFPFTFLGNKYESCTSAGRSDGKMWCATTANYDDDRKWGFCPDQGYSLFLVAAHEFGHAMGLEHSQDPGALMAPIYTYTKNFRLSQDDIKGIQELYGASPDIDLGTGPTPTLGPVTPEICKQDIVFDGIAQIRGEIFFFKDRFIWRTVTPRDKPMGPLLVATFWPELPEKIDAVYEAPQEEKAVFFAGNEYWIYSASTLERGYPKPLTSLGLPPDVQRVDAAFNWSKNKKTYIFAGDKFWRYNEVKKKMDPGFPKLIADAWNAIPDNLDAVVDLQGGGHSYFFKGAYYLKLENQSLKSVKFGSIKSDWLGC
Procedure: (§1) The inhibition constants Ki of compounds P1, P2, and P3 were determined in comparison to human MMPs 2, 3, 8, 9, 12, 13, 14 and to murine MMP12. Recombinant proteases were used in volumes of 100 μL at concentrations of 0.05, 0.3, 0.03, 0.05, 0.03, 0.015, and 0.5 nM respectively for human MMPs 2, 3, 8, 9, 12, 13, 14, and at a concentration of 0.1 nM for murine MMP12. […] Recall that the lower the Ki of a compound, the greater its potential for inhibiting the chosen target.

human MMP 3 = human MMP 3 (Homo sapiens, UniProt P08254); assay: Ki determination with fluorogenic substrate MCA-Mat, human MMP3; format: biochemical; conditions: recombinant MMP 3 h at 0.3 nM, 100 μL, MCA-Mat 15 μM
Procedure: as §1

human MMP 8 = human MMP 8 (Homo sapiens, UniProt P22894); assay: Ki determination with fluorogenic substrate MCA-Mat, human MMP8; format: biochemical; conditions: recombinant MMP 8 h at 0.03 nM, 100 μL, MCA-Mat 15 μM
Procedure: as §1

human MMP 9 = human MMP 9 (Homo sapiens, UniProt P14780); assay: Ki determination with fluorogenic substrate MCA-Mat, human MMP9; format: biochemical; conditions: recombinant MMP 9 h at 0.05 nM, 100 μL, MCA-Mat 15 μM
Procedure: as §1

human MMP 12 = human MMP 12 (Homo sapiens, UniProt P39900); assay: Ki determination with fluorogenic substrate MCA-Mat, human MMP12; format: biochemical; conditions: recombinant MMP 12 h at 0.03 nM, 100 μL, MCA-Mat 15 μM
Procedure: as §1

human MMP 13 = human MMP 13 (Homo sapiens, UniProt P45452); assay: Ki determination with fluorogenic substrate MCA-Mat, human MMP13; format: biochemical; conditions: recombinant MMP 13 h at 0.015 nM, 100 μL, MCA-Mat 15 μM
Procedure: as §1

human MMP 14 = human MMP 14 (Homo sapiens, UniProt P50281); assay: Ki determination with fluorogenic substrate MCA-Mat, human MMP14; format: biochemical; conditions: recombinant MMP 14 h at 0.5 nM, 100 μL, MCA-Mat 15 μM
Procedure: as §1

murine MMP12 = murine MMP12 (Mus musculus, UniProt P34960); assay: Ki determination with fluorogenic substrate MCA-Mat, murine MMP12; format: biochemical; conditions: recombinant MMP 12 m at 0.1 nM, 100 μL, MCA-Mat 15 μM
Procedure: as §1

MMP12h = MMP12h (Homo sapiens, UniProt P39900); conditions: read-out: Ki with respect to MMP12h; competitor used in strip and EIA tests; described in Devel et al, 2006; cited from earlier work
Chain of MMP12h (P39900 106-470): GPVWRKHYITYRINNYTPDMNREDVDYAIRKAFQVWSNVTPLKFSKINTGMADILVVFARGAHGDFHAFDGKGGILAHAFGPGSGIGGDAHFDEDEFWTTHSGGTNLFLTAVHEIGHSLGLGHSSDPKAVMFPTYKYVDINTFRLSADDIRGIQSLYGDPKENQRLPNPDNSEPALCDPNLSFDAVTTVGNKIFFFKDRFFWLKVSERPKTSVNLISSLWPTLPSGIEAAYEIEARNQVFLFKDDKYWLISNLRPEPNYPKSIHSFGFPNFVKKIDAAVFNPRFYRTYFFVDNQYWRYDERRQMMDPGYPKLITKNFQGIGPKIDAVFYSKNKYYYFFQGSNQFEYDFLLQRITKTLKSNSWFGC

Chain of human MMP 12 (P39900 106-470): as above
Chain of murine MMP12 (P34960 110-473): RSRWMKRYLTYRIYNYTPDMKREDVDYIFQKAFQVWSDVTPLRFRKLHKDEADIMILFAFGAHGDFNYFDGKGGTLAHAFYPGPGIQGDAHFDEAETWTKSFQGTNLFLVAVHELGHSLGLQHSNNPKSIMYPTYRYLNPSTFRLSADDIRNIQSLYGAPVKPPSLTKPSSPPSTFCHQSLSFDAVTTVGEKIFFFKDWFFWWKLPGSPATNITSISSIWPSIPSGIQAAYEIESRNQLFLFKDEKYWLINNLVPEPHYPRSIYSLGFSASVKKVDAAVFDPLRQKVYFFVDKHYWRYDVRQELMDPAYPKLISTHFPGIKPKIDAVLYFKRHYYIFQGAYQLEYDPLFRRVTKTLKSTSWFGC
Chain of human MMP 9 (P14780 94-707): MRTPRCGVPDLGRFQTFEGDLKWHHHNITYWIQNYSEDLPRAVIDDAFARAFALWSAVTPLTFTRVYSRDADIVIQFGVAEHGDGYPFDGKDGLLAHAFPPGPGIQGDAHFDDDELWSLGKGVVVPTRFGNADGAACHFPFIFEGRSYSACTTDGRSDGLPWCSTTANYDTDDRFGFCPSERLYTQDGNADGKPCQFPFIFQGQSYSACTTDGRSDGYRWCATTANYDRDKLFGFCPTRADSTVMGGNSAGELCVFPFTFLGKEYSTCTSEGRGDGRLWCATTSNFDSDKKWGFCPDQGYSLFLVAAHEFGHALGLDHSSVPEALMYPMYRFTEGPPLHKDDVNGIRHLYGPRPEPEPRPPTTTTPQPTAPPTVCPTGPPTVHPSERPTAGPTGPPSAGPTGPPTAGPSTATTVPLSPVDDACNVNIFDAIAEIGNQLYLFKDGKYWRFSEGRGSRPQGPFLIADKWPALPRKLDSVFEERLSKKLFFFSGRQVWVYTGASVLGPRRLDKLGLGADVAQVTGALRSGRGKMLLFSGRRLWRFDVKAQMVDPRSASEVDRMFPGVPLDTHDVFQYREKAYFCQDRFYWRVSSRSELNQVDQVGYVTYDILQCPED
Chain of human MMP 3 (P08254 100-477): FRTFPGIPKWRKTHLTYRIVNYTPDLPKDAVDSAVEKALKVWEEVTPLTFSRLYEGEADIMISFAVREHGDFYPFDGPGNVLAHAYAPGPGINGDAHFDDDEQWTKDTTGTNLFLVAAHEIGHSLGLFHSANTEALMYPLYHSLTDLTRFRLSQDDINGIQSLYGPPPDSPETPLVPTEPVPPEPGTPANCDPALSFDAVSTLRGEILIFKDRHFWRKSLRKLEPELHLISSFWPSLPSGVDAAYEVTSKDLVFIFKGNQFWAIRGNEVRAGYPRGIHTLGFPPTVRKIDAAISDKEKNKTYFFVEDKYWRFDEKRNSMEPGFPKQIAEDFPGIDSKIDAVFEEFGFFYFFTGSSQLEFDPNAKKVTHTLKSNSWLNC
Chain of human MMP 8 (P22894 101-467): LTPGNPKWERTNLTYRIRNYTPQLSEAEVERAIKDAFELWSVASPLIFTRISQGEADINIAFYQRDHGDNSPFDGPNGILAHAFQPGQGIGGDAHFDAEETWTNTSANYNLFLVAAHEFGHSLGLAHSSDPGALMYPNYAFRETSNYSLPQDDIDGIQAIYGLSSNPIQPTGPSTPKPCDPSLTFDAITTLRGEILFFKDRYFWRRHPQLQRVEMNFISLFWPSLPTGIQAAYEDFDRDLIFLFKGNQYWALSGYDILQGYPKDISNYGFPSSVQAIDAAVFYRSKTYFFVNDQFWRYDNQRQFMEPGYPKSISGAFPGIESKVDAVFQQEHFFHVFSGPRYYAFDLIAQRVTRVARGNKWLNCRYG

Row | SMILES | pKi (human MMP 2) | pKi (human MMP 3) | pKi (human MMP 8) | pKi (human MMP 9) | pKi (human MMP 12) | pKi (human MMP 13) | pKi (human MMP 14) | pKi (murine MMP12) | pKi (MMP12h)
1 | CC(=O)SCC(=O)NCCOCCOCCOCCOCCOCCOCCOCCOCCOCCOCCOCCOCCOCCOCCOCCOCCOCCOCCOCOCCOCCOCCOCCOCCOCCOCCOCCOCCC(=O)NCCCOCCOCCOCCCNC(=O)CNC(=O)[C@H](C)NC(=O)[C@H](Cc1ccc(O)cc1)NC(=O)C(Cc1cc(-c2ccc(-c3cccc(Cl)c3)cc2)no1)CP(=O)(O)[C@H](Cc1ccccc1)NC(=O)[C@H](C)NC(=O)[C@@H]1CCCN1C(C)=O (stereo partly shown) [Ligand P1] | 9.92 | 9.12 | 10.05 | 9.55 | 10.52 | 10.77 | 9.28 | 10.10 | 
2 | CC(=O)N1CCC[C@H]1C(=O)N[C@@H](C)C(=O)N[C@@H](Cc1ccccc1)P(=O)(O)CC(Cc1cc(-c2ccc(-c3cccc(Cl)c3)cc2)no1)C(=O)N[C@@H](Cc1ccc(O)cc1)C(=O)N[C@@H](C)C(=O)NCC(=O)NCCCOCCOCCOCCCNC(=O)CCOCCOCCOCCOCCOCCOCCOCCOCCOCOCCOCCOCCOCCOCCOCCOCCOCCOCCOCCOCCOCCOCCOCCOCCNC(=O)CCCN1C(=O)C=CC1=O (stereo partly shown) [Ligand P2] | 9.82 | 9.00 | 9.92 | 9.32 | 10.30 | 10.52 | 9.15 | 10.05 | 
3 | CCC(=O)NOCCOCCOCCOCCOCCOCCOCCOCCOCCOCCOCCOCCOCOCCOCCOCCOCCOCCOCCOCCOCCOCCOCCOCCOCCOCCOCCOCCC(=O)N1CCC[C@H]1C(=O)N[C@@H](C)C(=O)N[C@@H](Cc1ccccc1)P(=O)(O)CC(Cc1cc(-c2ccc(-c3cccc(Cl)c3)cc2)no1)C(=O)N[C@@H](Cc1ccc(O)cc1)C(=O)N[C@@H](C)C(=O)NCC(=O)NCCCOCCOCCOCCCNC(=O)CCCCC1SCC2NC(=O)NC21 (stereo partly shown) [Ligand P3] | 9.52 | 8.81 | 9.33 | 9.14 | 9.59 | 10.15 | 8.74 | 9.18 | 
4 | NC(=O)C(CCC(=O)O)NC(=O)C(CCC(=O)O)NC(=O)C(Cc1cc(-c2ccc(-c3cccc(Cl)c3)cc2)no1)CP(=O)(O)c1ccc(Br)cc1 (stereo not shown) [RXP470.1] |  |  |  |  |  |  |  |  | 9.70

Reference: patent publication US20150233926A1, “METHOD FOR SPECIFICALLY DETECTING A MATRIX METALLOPROTEINASE (MMP) WHICH IS ONLY OF INTEREST IN THE ACTIVE FORM THEREOF, IN A SAMPLE” (priority 2012, published 2015)
